Article PMC9388906, “Dual inhibition of the Echinococcus multilocularis energy metabolism” (Frontiers in Veterinary Science, 2022)

How the values were obtained:
Type in all cases: cell-based, Echinococcus multilocularis
[1] = test system: E. multilocularis GL cells (isolate H95); experiment: GL cell viability assay (CellTiter-Glo), isolate H95; conditions: isolate H95; 0.1 μM; 5 days; nitrogen atmosphere; mean (SD); active if <30%
Method: To assess the in vitro efficacy of ELQs against E. multilocularis, (a) the damage-marker phosphoglucose isomerase (PGI) assay was applied against metacestodes, and (b) the germinal layer (GL) cell viability assay was applied to measure effects on isolated GL cells. Both assays are described in more detail below. The drug testing strategy was as follows: PGI assay was first conducted for overview screening at 10 μM with the parasite isolates H95 and Sval. The GL cell viability assay was performed at 0.1 μM with both isolates H95 and Sval.
The isolation of E. multilocularis GL cells was done as described previously ([17]) with minor modifications. Fifteen units of GL cells were distributed to each well of a 384 well plate in a total volume of 12.5 μL conditioned medium. The different ELQs were added to the wells to 0.1 μM, in quadruplicates. As a negative control 0.1% DMSO was used. The 384-well plate was incubated for 5 days at 37°C under humid nitrogen atmosphere. Thereafter, viability of the GL cells under different drug treatments was assessed by CellTiter-Glo® (Promega AG, Dübendorf, Switzerland). The CellTiter-Glo reagent was complemented with 1% Tx-100. The luciferase bioluminescence was measured at 530 nm by using the Enspire multilabel reader (PerkinElmer Life Sciences, Schwerzenbach, Switzerland). Using Microsoft Excel, the blank values were subtracted from the experimental values and the relative viability compared to DMSO was calculated. Viabilities were calculated as mean values and standard deviations for each quadruplicate.

[2] = test system: mitochondrial bc1 complex of E. multilocularis GL cells; experiment: Seahorse oxygen consumption rate assay; conditions: 1 μM; succinate as initial electron donor; restored by ascorbate/TMPD, not by succinate or glycerol 3-phosphate
Method: To measure effects of ELQ-400 on the oxygen consumption rate (OCR), Seahorse assay was conducted according to the method established by Rufener et al. ([17]) and according to the manual for Seahorse XFp Extracellular Flux Analyzer (Agilent Technologies, Bucher Biotec, Basel, Switzerland). E. multilocularis GL cells were isolated and prepared the day before. Cells were centrifuged and resuspended in Mitochondrial Assay Solution (MAS) solution (220 mM mannitol, 70 mM sucrose, 10 mM KH2PO4, 5 mM MgCl2, 2 mM HEPES, and 1 mM EGTA pH 7.2). This cell suspension was centrifuged again and the pellet was resuspended in assay-buffer (MAS, 10 mM succinate, 2 μM rotenone, 4 mM ADP, and 3.6 nM PMP). 100 units of GL cells were distributed to each well of a Seahorse XFp miniplate (Agilent Technologies) pre-coated with CellTak according to the instruction manual (Fisher Scientific, Schwerte, Germany). Two wells were used as blanks with assay buffer without cells. ELQ-400 (1 μM) was diluted in MAS solution and loaded to the delivery ports of the sensor cartridge of the first injection (or DMSO as a control). In the second injection, succinate (10 mM), glycerol 3-phosphate (10 mM), or ascorbate (20 mM) with TMPD (0.6 mM) was added. […] Each drug setup was tested in triplicates and the read-out and analysis was done using the software Wave (Agilent Technologies, Bucher Biotec, Basel, Switzerland). […]

[3] = test system: E. multilocularis metacestodes; experiment: PGI assay, single and combination treatment under normoxic and anaerobic conditions; conditions: 5 days
Method: The PGI assay measures the amount of PGI that metacestodes release into the medium when damaged ([17], [32]). The purification and in vitro drug incubation of E. multilocularis metacestodes was conducted according to Stadelmann et al. ([32]). In short, cultures were applied for in vitro drug testing at the age of 6-8 weeks. E. multilocularis metacestodes were therefore purified by the addition of 2% saccharose and washed extensively with PBS. Purified metacestodes were suspended 1:3 with DMEM (without phenol red, supplemented with 100 U/mL penicillin, 100 μg/mL streptomycin) and distributed in 48-well plates (1 mL/well, thus 300 μL pure metacestode vesicles per well). […] The corresponding DMSO concentration was used as negative control and Tx-100 (0.1% final concentration) was used for total damage (positive control). […] After 5 days, relative PGI activities were measured and calculated as percentage of the Tx-100 control as described previously in Rufener et al. ([17]). They were calculated as mean values and standard deviations for each triplicate. EC50 calculations were calculated based on logit-log transformed values in Microsoft Office Excel 2010. EC50 measurements were performed twice, and averages and standard deviations of these repeated tests are given.
For double inhibition of the mitochondrial energy pathways of E. multilocularis, quinazoline as an inhibitor of the anaerobic MD ([29]) was applied in combination with ELQ-400 as an inhibitor of the ETC. Both compounds were tested either alone or in combination at 10 μM with the above-described PGI assay for 5 days for their activity against E. multilocularis metacestodes. PGI assays were done in triplicates and two times independently. […] Results of the assays were calculated as mean values and standard deviations for each biological triplicate were calculated as relative percentage to the Tx-100 control. To assess direct effects on the MD, succinate levels were measured in the supernatants of the PGI assay, as described below. […]

Cc1[nH]c2cc(F)cc(F)c2c(=O)c1-c1ccc(Oc2ccc(OC(F)(F)F)cc2)cc1 [ELQ-400] was tested. Which “GL cells, viability via ATP measurements, relative to DMSO control” value [1] did it give?
The value was 8.4 (4.8) %.

What about the “Oxygen consumption rate (OCR) of GL cells” value [2] of the same molecule?
Its value is “immediate reduction of the OCR”.

What about the “PGI release of metacestodes relative to Tx-100” value ([3]; 10 μM each, anaerobic (0% O2)) of the same molecule?
Its value is “significantly reduced”.

And the “PGI release of metacestodes relative to Tx-100” value ([3]; 10 μM, normoxic (21% O2))?
Its value is “active”.
